Experimental data reported in US6127541A, “Imidazoquinazoline derivatives” (Kyowa Hakko Kogyo Co., Ltd., priority 1996, dated 2000).
Counter-ions that a name gives are not always drawn.

Tests used:
rats [1] = test: Hypotensive effect in anesthetized rats (mean blood pressure); format: in vivo, male Sprague-Dawley rat; conditions: rat, 10 mg/kg, i.d. N = 2; from value before administration (100%)
Protocol: Test Example 2. The Hypotensive Effect in Rats
After a male Spraque-Dawley rat (two […]/group) anesthetized with urethane was fixed in the supine position, a cannula was inserted into trachea and the rat was artificially ventilated under the conditions of a tidal volume of […] and 60 breathes/min. The carotid artery and the duodenum were cannulated for measuring blood pressure and administering a drug, respectively. The drug was dissolved in distilled water and administered duodenally using the above cannula. Mean blood pressure (mBP) until […] after the drug-administration was measured and the maximum lowering rate (%) from the value before the drug-administration (100%) was determined. No change of mBP was observed during 30 minutes in case of administrating distilled water.

[2] = target: T1, PDE V (cGMP-specific PDE) (Canis lupus familiaris, UniProt O77746); test: Inhibitory activity on PDE V derived from canine tracheal smooth muscle; format: biochemical; conditions: Compound conc.: 1 nM; substrate 1.0 μM [3H]cGMP; read-out: PDE V inhibitory activity, Inhibition rate (%)
T1 construct: purified from canine tracheal smooth muscle; from tissue; host or cells: canine tracheal smooth muscle
Protocol: Hereinafter, PDE inhibitory activity and pharmacological activity of the representative Compounds (I) are described in more detail by Test Examples. Test Example 1. The inhibitory activity on PDE derived from canine tracheal smooth muscle
(1) Purification of an Enzyme
According to the method of Torphy et al. [Mol. Pharmacol., 37, 206 (1990)], PDE V (cGMP-specific PDE) was purified from canine tracheal smooth muscle.
(2) Measurement of PDE Activity
The activity was measured based on the method of Kincaid et-al. [J. D. Corbin et al., Methods Enzymol., 159, 457(1988), Academic Press, New York]. The measurement was carried out using, as a substrate, 1.0 μM [^3 H]cGMP, and the reaction was carried out in a buffer having the following composition:
50 mM N,N-bis(2-hydroxyethyl)-2-aminoethanesulfonic acid (pH 7.2), 1 mM MgCl2, 0.1 mg/ml soybean trypsin inhibitor.
The reaction was started by addition of the enzyme and stopped by addition of hydrochloric acid after reacting for 10 to 30 minutes at 30° C. Thereafter, sodium hydroxide was added for neutralization and 5'-GMP was converted into guanosine using 5'-nucleotidase. The reaction solution was subjected to DEAE-Sephadex A-25 column. [^3 H]Guano sine was eluted with distilled water and the radioactivity was measured with a liquid scintillation counter. The inhibitor was dissolved in 1.7% DMSO.

rats [3] = test: Effect on developed cavernous pressure and duration of tumescence in rats; format: in vivo, male Sprague-Dawley rat; conditions: 20 μg/rat, injected into the cavernous body; for DCP (developed cavernous pressure), Pre / DT (duration of tumescence), Pre: before administration; for DCP (developed cavernous pressure), 6-min / DT (duration of tumescence), 6-min: six minutes after administration
Protocol: Test Example 3. Effect of Developed Cavernous Pressure and Duration of Tumescence in Rats
A male Sprague-Dawley rat was anesthetized with urethane (1.3 g/kg) subcutaneously injected into the back of the neck. The perineal incision was performed and the right crus of the penis was exposed. For measurement of cavernous pressure, a needle (25G) attached to a polyethylene tube (PE50) filled with a heparin solution was inserted into the right crus. The polyethylene tube was connected to a pressure transducer (MPC-500, Millar Instruments) and cavernous pressure was amplified with an amplifier (AP-621G, Nihon Kohden) and then recorded on a pen recorder (LR4220, Yokokawa Denki). The abdomen was incised and cavernous nerves on the prostate was exposed. The nerve was placed on a bipolar tungsten electrode and stimulated by current pulses(frequency; 20 Hz, duration; 0.2 ms, strength; 3 to 5 V) for 50 seconds with an electric stimulator (SEN-3201, Nihon Koden) to induce increases in cavernous pressure. The test compounds were dissolved in distilled water (DW) or 0.01 N hydrochloric acid at a concentration of 1 mg/ml and injected into the cavernous body(0.02 ml/rat) with a needle (27G). Before(Pre) and six minutes after administration (6-min). of distilled water (DW) or the test compounds, the nerve was stimulated, and developed cavernous pressure (DCP) and the duration of tumescence (DT) were measured. DT was defined as the time from the start of stimulation to 50% of the peak cavernous pressure after the end of stimulation.

For `CCn1c(=O)[nH]c2cc3c(NCc4ccccc4N4CCSCC4)ncnc3cc21` [Compound 15, 3-Ethyl-8-(2-thiomorpholinobenzylamino)-2,3-dihydro-1H-imidazo[4,5-g]quinazoline-2-one 1 hydrochloride], the “Hypotensive activity, Maximum lowering rate (%) of mean blood pressure” value (rats [1]) was 19.8%.
`CCn1c(=S)[nH]c2cc3c(NCc4ccccc4N4CCC(CO)CC4)ncnc3cc21` [Compound 34, 3-Ethyl-8-[2-(4-hydroxymethylpiperidino)benzylamino]-2,3-dihydro-1H-imidazo[4,5-g]quinazoline-2-thione 2 hydrochloride] was tested, and the inhibition at 0.001 µM [2] was 95%, the “DCP (developed cavernous pressure), Pre” value (rats [3]) was 23.9 ± 2.0 mmHg and the “DT (duration of tumescence), Pre” value (rats [3]) was 3.3 ± 0.9 s. For the same compound, the “DCP (developed cavernous pressure), 6-min” value (“DCP … 6-min” for short) (rats [3]) was 31.1 ± 4.7 mmHg and the “DT (duration of tumescence), 6-min” value (rats [3]) was 16.9 ± 2.4 s.
For `CCCNc1ccc(CNc2ncnc3cc4c(cc23)[nH]c(=S)n4CC)cc1` [Compound 26, 3-Ethyl-8-(4-propylaminobenzylamino)-2,3-dihydro-1H-imidazo[4,5-g]quinazoline-2-thione 2 hydrochloride], the “DCP (developed cavernous pressure), Pre” value (rats [3]) was 21.5 mmHg, the “DT (duration of tumescence), Pre” value (rats [3]) was 3.8 s and the “DCP … 6-min” value (rats [3]) was 27.7 mmHg. For the same compound, the “DT (duration of tumescence), 6-min” value (rats [3]) was 22.9 s.
`CCn1c(=S)[nH]c2cc3c(NCc4ccc(NCc5ccccc5)cc4)ncnc3cc21` [Compound 24, 8-(4-Benzylaminobenzylamino)-3-ethyl-2,3-dihydro-1H-imidazo[4,5-g]quinazoline-2-thione 2 hydrochloride] gave an inhibition at 0.001 µM [2] of 88%.
`CCn1c(=S)[nH]c2cc3c(NCc4ccccc4NC)ncnc3cc21` [Compound 22, 3-Ethyl-8-(2-methylaminobenzylamino)-2,3-dihydro-1H-imidazo[4,5-g]quinazoline-2-thione 2 hydrochloride] gave an inhibition at 0.001 µM [2] of 91%.
For `CCn1c(=S)[nH]c2cc3c(NCc4ccccc4N4CCCCC4)ncnc3cc21` [Compound 35, 3-Ethyl-8-(2-piperidinobenzylamino)-2,3-dihydro-1H-imidazo[4,5-g]quinazoline-2-thione 2 hydrochloride], the inhibition at 0.001 µM [2] was 95%, the “DCP (developed cavernous pressure), Pre” value (rats [3]) was 22.6 mmHg and the “DT (duration of tumescence), Pre” value (rats [3]) was 1.6 s. For the same compound, the “DCP … 6-min” value (rats [3]) was 21.2 mmHg and the “DT (duration of tumescence), 6-min” value (rats [3]) was 8.1 s.
With `CCn1c(=S)[nH]c2cc3c(NCc4ccccc4N4CCN(C)CC4)ncnc3cc21` [Compound 36, 3-Ethyl-8-[2-(4-methyl-1-piperazinyl)benzylamino]-2,3-dihydro-1H-imidazo[4,5-g]quinazoline-2-thione 3 hydrochloride] the “Hypotensive activity, Maximum lowering rate (%) of mean blood pressure” value (rats [1]) was 17.6%.
With `CCn1c(=S)[nH]c2cc3c(NCc4cccc(N5CCN(C)CC5)c4)ncnc3cc21` [Compound 40, 3-Ethyl-8-[3-(4-methyl-1-piperazinyl)benzylamino]-2,3-dihydro-1H-imidazo[4,5-g]quinazoline-2-thione 3 hydrochloride] the “Hypotensive activity, Maximum lowering rate (%) of mean blood pressure” value (rats [1]) was 16.1%.
`CCn1c(=O)[nH]c2cc3c(NCc4ccc(NC)cc4)ncnc3cc21` [Compound 2, 3-Ethyl-8-(4-methylaminobenzylamino)-2,3-dihydro-1H-imidazo[4,5-g]quinazoline-2-one 2 hydrochloride] was tested, and the “Hypotensive activity, Maximum lowering rate (%) of mean blood pressure” value (rats [1]) was 19.7%.
`CCNc1ccc(CNc2ncnc3cc4c(cc23)[nH]c(=O)n4CC)cc1` [Compound 6, 3-Ethyl-8-(4-ethylaminobenzylamino)-2,3-dihydro-1H-imidazo[4,5-g]quinazoline-2-one 2 hydrochloride] gave an inhibition at 0.001 µM [2] of 37%.
Compound `CCn1c(=O)[nH]c2cc3c(NCc4ccc(NCc5ccccc5)cc4)ncnc3cc21` [Compound 3, 8-(4-Benzylaminobenzylamino)-3-ethyl-2,3-dihydro-1H-imidazo[4,5-g]quinazoline-2-one 2 hydrochloride] has an inhibition at 0.001 µM [2] of 62%.
Compound `CCNc1ccc(CNc2ncnc3cc4c(cc23)[nH]c(=S)n4CC)cc1` [Compound 27, 3-Ethyl-8-(4-ethylaminobenzylamino)-2,3-dihydro-1H-imidazo[4,5-g]quinazoline-2-thione 2 hydrochloride] has an inhibition at 0.001 µM [2] of 97%.
In the case of `CCn1c(=S)[nH]c2cc3c(NCc4ccccc4NCCO)ncnc3cc21` [Compound 30, 3-Ethyl-8-[2-(2-hydroxyethylamino)benzylamino]-2,3-dihydro-1H-imidazo[4,5-g]quinazoline-2-thione 2 hydrochloride], the inhibition at 0.001 µM [2] is reported as 97%.
`CCn1c(=S)[nH]c2cc3c(NCc4ccccc4N4CCOCC4)ncnc3cc21` [Compound 33, 3-Ethyl-8-(2-morpholinobenzylamino)-2,3-dihydro-1H-imidazo[4,5-g]quinazoline-2-thione 1 hydrochloride] gave an inhibition at 0.001 µM [2] of 98%.
